These are literature values, as cited in patent publication US20070110685A1, “Combination therapy for the treatment of immunoinflammatory disorders” (priority 2005, published 2007).

In the case of `CO[C@H]1C[C@@H]2CC[C@@H](C)[C@@](O)(O2)C(=O)C(=O)N2CCCC[C@H]2C(=O)O[C@H]([C@H](C)C[C@@H]2CC[C@@H](O)[C@H](OC)C2)CC(=O)[C@H](C)/C=C(\C)[C@@H](O)[C@@H](OC)C(=O)[C@H](C)C[C@H](C)/C=C/C=C/C=C/1C` [Rapamycin], the “absorption after oral administration” value was “absorbed rapidly and completely”.
